Assay results taken from patent publication US12559696B2, “Amine containing aqueous fluids and method of producing same” (Illinois Tool Works Inc., priority 2023, dated 2026).

What was measured:
[1] = system: microbial growth; test: Biological testing according to ASTM E2275; type: cell-based; conditions: 3-amino-4-octanol in solution at 6 total weight percent at higher
From the text: The solutions of Examples 1 and 3 and Comparative Examples A and B are subjected to biological testing according to ASTM E2275.

[2] = standard temperature and pressure (STP); cited from earlier work

CCCCC(O)C(N)CC (centres unmarked) [3-amino-4-octanol]
resistance to microbial growth [1]: enhanced resistant to microbial growth | solubility of 3-amino-4-octanol in water [2]: about 4.5 percent by weight
